Reference: patent publication US20260000496A1, “MATERIALS AND METHODS FOR DRUG-INDUCED GINGIVAL OVERGROWTH” (Optimed Technology, Inc., priority 2019, published 2026)

What was measured:
[1] = system: Human TNF-α promoter; test: TNF-α promoter luciferase reporter assay in oral keratinocytes; type: cell-based; conditions: full length promoter and deletion constructs; CSA, LPS & Folic acid each 10 μg/ml; p<0.05
Method: Reporter assay. The TNF-α promoter deletion constructs, Δ−1220 (−1220 to +65) and Δ−450 (−450 to +65) were synthesized from SwitchGear Genomics (USA) for the luciferase reporter assay. The human TNF-α promoter constructs or an empty pLightSwitch promoter reporter vector as a control was transfected in to NOKSI using the FuGene reagent (SwitchGear Genomics, USA). Cells were seeded with a density of 5×10^3 per well of 96-well plate. GoClone reporter constructs and transfection reagents were mixed with optimum combination and incubated for 30 minutes. The media were changed to the seeded cells and reaction mixture were gently dripped onto the seeded cells, shaked the plate gently and incubated for next 24 hours. The LightSwitch assay reagents were added to the transfected plates and incubated for 30 minutes at room temperature. Luciferase activity were measured with a luminometer (Wallac Vector3; PerkinElmer, Boston, MA).
Oral Keratinocytes cells were transfected with Full length TNF-α promoter and […] and treated with CSA (10 μg/ml) & LPS (10 μg/ml), and CSA (10 μg/ml), LPS (10 μg/ml) & Folic acid (10 μg/ml). TNF-α luciferase reporter activity were measured. (p<0.05).

[2] = system: Myd88; test: Mice study #2: Myd88 immunoblotting of gingival samples; type: in vivo, C57BL/6 mice; conditions: three mice per group
Method: Western blot analysis. Cells were seeded in 60 mm plates with a density of 5×10^5 cells per plate and washed briefly with Dulbecco's phosphate-buffered saline (Gibco, Waltham, MA, USA). Whole cell lysates were prepared using RIPA lysis buffer containing protease inhibitor cocktail (Sigma-Aldrich). Total protein concentration was determined using the BCA reagent (Pierce, Waltham, MA, USA). 20 μg of total protein were resolved on sodium dodecyl sulfate-polyacrylamide gel electrophoresis and transferred to polyvinylidenedifluoride membrane and immunoblotted. The blots were incubated for 1 h in 1% bovine serum albumin (BSA) (Sigma-Aldrich) to block the non-specific bindings followed by over-night incubation in primary antibodies (MyD88 and pP65 from Cell Signaling Technology, and human LITAF ThermoFisher Sigma) at 4° C. on shaker. Next day, blots were washed for three times (10 min each) in Tris-buffered saline containing 1% Tween20 (TBST) followed by incubation with secondary antibody (Goat anti-rabbit IgG HRP) with 1:10,000 dilution for 1 h. […] The band intensities were quantified using software ImageJ (NIH, USA) and relative protein levels were normalized by β-actin (Cell Signaling). […] The band intensities were measured by the software ImageJ (NIH, USA), and relative protein levels were normalized by β-actin.

[3] = system: TNF-α; test: TNF-α ELISA of mice gingival tissue lysates; type: in vivo; conditions: n=5, p<0.05
Method: Enzyme linked immunosorbent assay (ELISA). ELISA was conducted with a mouse TNF-α ELISA Kit (PeproTech, USA) and TGF-β Emax ImmunoAssay System (Promega USA) to detect the TNF-α and TGF-β respectively. After normalization of the total cells or tissue protein lysates, 20 μg protein of each sample was used for the detection of TNF-α or TGF-β. ELISA was performed according to the manufacturers' instructions. For TNF-α, 100 ng/100 μl of capture antibody was added to each well of 96 well assay plate and incubated for overnight at room temperature. Blocking buffer of 200 μl per well were added to each well and incubated for 1 hour at room temperature. 20 μg of each protein sample as well as TNF-α standard (from 2 ng/ml to 0 ng/ml) were added and incubated the plates for 2 hours. 50 ng/100 μl of detection antibody was added in each well and incubated for 2 hours. Avidin-HRP conjugated antibody with a dilution of 1:2000 was added for 30 minutes. 100 μl per well of ABTS solution was added to each well and incubated until color change. Optical absorbing values were read at 405 and 450 nm and corrected by 650 nm. […] TMB One Solution was added for 15 minutes and the reaction were stopped using 100 μl of 1N hydrochloric acid and the absorbance at 450 nm were recorded on a plate reader. Data were analyzed using excel software. […]
Mice gingival tissue lysates were assessed for TNF-α levels using an ELISA (n=5).

Nc1nc2ncc(CNc3ccc(C(=O)N[C@@H](CCC(=O)O)C(=O)O)cc3)nc2c(=O)[nH]1 [folic acid]
TNF-α luciferase reporter activity [1]: inhibits promoter activity of TNF-α | Myd88 expression, disease group relative to control and folic acid treatment group [2]: higher Myd88 expressions compared to the control and treatment group | TNF-α levels in mice gingival tissue lysates [3]: reduced the expression of TNF-α
